Reference: BindingDB's records for doi:10.1016/j.bmcl.2007.01.039 (Merck Research Laboratories, 2007)

Target: Dipeptidyl peptidase 2 (Homo sapiens, UniProt Q9UHL4)
Experiment: Dipeptidyl Peptidase Inhibition Assay

Row | IC50 | Compound
1 | > 100 µM | C[C@@H]1C(=O)N[C@@H](C(F)(F)F)CCN1C(=O)C[C@H](N)Cc1cc(F)c(F)cc1F [(3R,7R)-4-[(3R)-3-amino-4-(2,4,5-trifluorophenyl)butanoyl]-3-methyl-7-(trifluoromethyl)-1,4-diazepan-2-one]
2 | > 100 µM | C[C@@H]1C(=O)NCCCN1C(=O)C[C@H](N)Cc1cc(F)ccc1F [(3R)-4-[(3R)-3-amino-4-(2,5-difluorophenyl)butanoyl]-3-methyl-1,4-diazepan-2-one]
